# Values joined by “and” are separate entries in the source; they are usually repeats but may differ in a detail not shown here. Equal entries are not always repeated. Inconclusive results and toxic doses are left out. Square brackets hold non-standard residues; d marks the D form. Peptide text beside a SMILES is read from it. * marks the point of attachment. ξ: configuration not given here. ξAsp(βξ-Me) = CC(C(=O)O)C(N)C(=O)O; X4 = CC(N*)C1NC(=O)C2CCCCN2C1=O; ξAbu(3ξ-NH2) = CC(N)C(N)C(=O)O; X3 = CCC(C)CCC/C=C/CC(=O)*; Cbz = O=C(OCc1ccccc1)*
# Tested on: BDF1 mice, B16 melanoma ip, median survival T/C
# Assay: NCI In Vivo Anticancer Drug Screen. Data for tumor model B16 Melanoma (intraperitoneal) in B6D2F1 (BDF1) mice
# Details: endpoint: median survival time, higher = longer survival
# In short: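 Mice with transplantable tumors; drug vs vehicle groups; endpoint survival or tumor size; value = T/C.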
# [1] = dose: 50.0 mg/kg/injection, schedule: Q01DX009 (ip), vehicle: Klucel (hydroxypropylcellulose) (HPC)
# [2] = dose: 100.0 mg/kg/injection, schedule: Q01DX009 (ip), vehicle: saline with Tween-80
# [3] = dose: 400.0 mg/kg/injection, schedule: Q01DX009 (ip), vehicle: saline with Tween-80
# [4] = dose: 6.25 mg/kg/injection, schedule: Q01DX009 (ip), vehicle: saline with Tween-80
# [5] = dose: 25.0 mg/kg/injection, schedule: Q01DX009 (ip), vehicle: saline with Tween-80
# [6] = dose: 100.0 mg/kg/injection, schedule: Q01DX009 (ip), vehicle: Klucel (hydroxypropylcellulose) (HPC)
# [7] = dose: 0.78 mg/kg/injection, schedule: Q01DX009 (ip), vehicle: saline with Tween-80
# [8] = dose: 50.0 mg/kg/injection, schedule: Q01DX009 (ip), vehicle: saline with Tween-80
# [9] = dose: 100.0 mg/kg/injection, schedule: Q04DX003 (ip), vehicle: saline with Tween-80
# [10] = dose: 200.0 mg/kg/injection, schedule: Q04DX003 (ip), vehicle: saline with Tween-80
# [11] = dose: 400.0 mg/kg/injection, schedule: Q04DX003 (ip), vehicle: saline with Tween-80
# [12] = dose: 200.0 mg/kg/injection, schedule: Q01DX009 (ip), vehicle: Klucel (hydroxypropylcellulose) (HPC)
# [13] = dose: 400.0 mg/kg/injection, schedule: Q01DX009 (ip), vehicle: Klucel (hydroxypropylcellulose) (HPC)
smiles,measurement,setting,value
CS(=O)(=O)OCCN(CCOS(C)(=O)=O)c1ccc(C=Nc2ccc3oc(=O)ccc3c2)cc1,T/C,"dose: 6.25 mg/kg/injection, schedule: Q01DX009 (ip), vehicle: Klucel (hydroxypropylcellulose) (HPC)",120 % of control
same,T/C,"dose: 12.5 mg/kg/injection, schedule: Q01DX009 (ip), vehicle: Klucel (hydroxypropylcellulose) (HPC)",118 % of control
same,T/C,[1],118 % of control
COC(=O)[c-]1[c-][c-][c-][c-]1.COC(=O)[c-]1[c-][c-][c-][c-]1.[Fe],T/C,"dose: 18.0 mg/kg/injection, schedule: Q01DX009 (ip), vehicle: Klucel (hydroxypropylcellulose) (HPC)",95 % of control and 103 % of control
same,T/C,"dose: 28.75 mg/kg/injection, schedule: Q01DX009 (ip), vehicle: Klucel (hydroxypropylcellulose) (HPC)",104 % of control and 106 % of control
same,T/C,"dose: 33.75 mg/kg/injection, schedule: Q04DX003 (ip), vehicle: Klucel (hydroxypropylcellulose) (HPC)",114 % of control
same,T/C,"dose: 45.0 mg/kg/injection, schedule: Q01DX009 (ip), vehicle: Klucel (hydroxypropylcellulose) (HPC)",103 % of control and 118 % of control
same,T/C,"dose: 67.5 mg/kg/injection, schedule: Q04DX003 (ip), vehicle: Klucel (hydroxypropylcellulose) (HPC)",92 % of control
COc1cc(NC(=O)CN(CCCl)CCCl)cc(OC)c1OC,T/C,[2],170 % of control
same,T/C,[3],161 % of control
CCc1ccc(C2=C(O)C(=O)C(c3ccc(CC)cc3)=C(O)C2=O)cc1,T/C,"dose: 3.12 mg/kg/injection, schedule: Q01DX009 (ip), vehicle: saline with Tween-80",114 % of control
same,T/C,[4],103 % of control
same,T/C,"dose: 12.5 mg/kg/injection, schedule: Q01DX009 (ip), vehicle: saline with Tween-80",113 % of control and 119 % of control
same,T/C,[5],112 % of control and 122 % of control
Oc1ccc(Br)cc1-c1nc2cc(Cl)c(Cl)cc2nc1-c1cc(Br)ccc1O,T/C,"dose: 25.0 mg/kg/injection, schedule: Q01DX009 (ip), vehicle: Klucel (hydroxypropylcellulose) (HPC)",87 % of control
same,T/C,[1],86 % of control
same,T/C,[6],91 % of control and 94 % of control
NNc1n[nH]c(=S)n1N,T/C,[7],88 % of control
same,T/C,"dose: 1.56 mg/kg/injection, schedule: Q01DX009 (ip), vehicle: saline with Tween-80",93 % of control
same,T/C,"dose: 3.13 mg/kg/injection, schedule: Q01DX009 (ip), vehicle: saline with Tween-80",90 % of control
same,T/C,[4],86 % of control
O=C(CBr)CC(O)(C(F)(F)F)C(F)(F)F,T/C,"dose: 0.75 mg/kg/injection, schedule: Q01DX009 (ip), vehicle: saline",100 % of control
same,T/C,"dose: 0.75 mg/kg/injection, schedule: Q04DX003 (ip), vehicle: saline",97 % of control
same,T/C,"dose: 1.5 mg/kg/injection, schedule: Q01DX009 (ip), vehicle: saline",105 % of control
same,T/C,"dose: 1.5 mg/kg/injection, schedule: Q04DX003 (ip), vehicle: saline",100 % of control
same,T/C,"dose: 3.0 mg/kg/injection, schedule: Q01DX009 (ip), vehicle: saline",94 % of control
same,T/C,"dose: 3.0 mg/kg/injection, schedule: Q04DX003 (ip), vehicle: saline",100 % of control and 105 % of control
CCCCCCCCCCCCCCCCOc1ccccc1C(C)=O,T/C,[5],92 % of control
same,T/C,[8],92 % of control
same,T/C,[2],89 % of control
same,T/C,[3],100 % of control
COC(=O)/C=C/c1ccc([N+](=O)[O-])cc1,T/C,[9],90 % of control
same,T/C,[10],93 % of control
same,T/C,[11],86 % of control
Cc1cc(O)c2c(c1O)C(=O)C13C(=C2O)C(=O)C2C(O)C1C1C(O)C3C(=O)C3=C(O)c4c(O)cc(C)c(O)c4C(=O)C321 (stereo unspecified),T/C,"dose: 0.19 mg/kg/injection, schedule: Q01DX009 (ip), vehicle: saline with Tween-80",105 % of control
same,T/C,"dose: 0.39 mg/kg/injection, schedule: Q01DX009 (ip), vehicle: saline with Tween-80",114 % of control
same,T/C,[7],121 % of control
CCC[CH2][Sn]1([CH2]CCC)[O]OC2(CCCCC2)[O]1,T/C,"dose: 1.25 mg/kg/injection, schedule: Q01DX009 (ip), vehicle: saline with Tween-80",113 % of control
same,T/C,"dose: 2.5 mg/kg/injection, schedule: Q01DX009 (ip), vehicle: saline with Tween-80",100 % of control
COc1cc2c(c(OC)c1OC)-c1ccc(OC)c(=O)cc1[C@@H](N)CC2,T/C,"dose: 0.31 mg/kg/injection, schedule: Q01DX009 (ip), vehicle: saline",120 % of control
same,T/C,"dose: 2.5 mg/kg/injection, schedule: Q01DX009 (ip), vehicle: Klucel (hydroxypropylcellulose) (HPC)",89 % of control
same,T/C,"dose: 5.0 mg/kg/injection, schedule: Q01DX009 (ip), vehicle: Klucel (hydroxypropylcellulose) (HPC)",110 % of control
O=c1cccccc1O.O=c1cccccc1O.[Cu],T/C,"dose: 0.39 mg/kg/injection, schedule: Q01DX009 (ip), vehicle: Klucel (hydroxypropylcellulose) (HPC)",102 % of control
same,T/C,"dose: 0.78 mg/kg/injection, schedule: Q01DX009 (ip), vehicle: Klucel (hydroxypropylcellulose) (HPC)",92 % of control
CCC(C)CCC/C=C/CC(=O)NC(CC(=O)O)C(=O)NC(C(=O)NC(CC(=O)O)C(=O)NCC(=O)NC(CC(=O)O)C(=O)NCC(=O)NC(C(=O)NC(C(=O)N1CCCC1C(=O)NC(C)C1NC(=O)C2CCCCN2C1=O)C(C)C)C(C)N)C(C)C(=O)O (stereo not drawn) (X3-D[ξAsp(βξ-Me)]DGDG[ξAbu(3ξ-NH2)]VP-X4; configuration not given here),T/C,"dose: 100.0 mg/kg/injection, schedule: Q01DX009 (ip), vehicle: saline + alcohol",90 % of control
same,T/C,"dose: 200.0 mg/kg/injection, schedule: Q01DX009 (ip), vehicle: saline + alcohol",93 % of control
CC1(C#N)CCc2c(ccc3ccccc23)C1=O (stereo unspecified),T/C,"dose: 50.0 mg/kg/injection, schedule: Q04DX003 (ip), vehicle: other",122 % of control
same,T/C,"dose: 100.0 mg/kg/injection, schedule: Q04DX003 (ip), vehicle: other",107 % of control
same,T/C,[9],95 % of control
same,T/C,[11],95 % of control
CN(C)CCCN=Cc1ccccc1O.CN(C)CCCN=Cc1ccccc1O.[Ni+2],T/C,"dose: 6.25 mg/kg/injection, schedule: Q04DX003 (ip), vehicle: saline with Tween-80",92 % of control
same,T/C,"dose: 25.0 mg/kg/injection, schedule: Q04DX003 (ip), vehicle: saline with Tween-80",86 % of control
CC(=O)N(C)C(C(=O)N1CC(C)CC1C(=O)N(C)C1C(=O)NC(CC(C)C)C(=O)N2CC(C)CC2C(=O)NC(CC(C)C)C(=O)N(C)C(C(C)C)C(=O)N2CCCC2C(=O)N(C)C(CC(C)C)C(=O)NCC(=O)OC1C)C(C)C (stereo unspecified),T/C,"dose: 18.75 mg/kg/injection, schedule: Q01DX009 (ip), vehicle: Klucel (hydroxypropylcellulose) (HPC)",94 % of control
same,T/C,"dose: 37.5 mg/kg/injection, schedule: Q01DX009 (ip), vehicle: Klucel (hydroxypropylcellulose) (HPC)",97 % of control
same,T/C,"dose: 75.0 mg/kg/injection, schedule: Q01DX009 (ip), vehicle: Klucel (hydroxypropylcellulose) (HPC)",94 % of control
CCN(CC)CCOC(=O)c1ccc(NC(=O)Nc2ccc(C(=O)OCCN(CC)CC)cc2)cc1,T/C,"dose: 6.25 mg/kg/injection, schedule: Q01DX009 (ip), vehicle: saline",95 % of control
same,T/C,"dose: 12.5 mg/kg/injection, schedule: Q01DX009 (ip), vehicle: saline",88 % of control
same,T/C,[5],97 % of control
same,T/C,"dose: 25.0 mg/kg/injection, schedule: Q01DX009 (ip), vehicle: saline",102 % of control
same,T/C,[8],110 % of control
same,T/C,[2],108 % of control
Cc1ccc(/C=N\N=C\c2ccc(C)cc2)cc1,T/C,[8],100 % of control
same,T/C,[2],88 % of control
CC(C)CC(NC(=O)C(Cc1ccccc1)NC(=O)OCc1ccccc1)C(=O)O (stereo not drawn) (Cbz-Phe-Leu-OH; configuration not given here),T/C,[5],92 % of control
same,T/C,[8],93 % of control
same,T/C,[2],90 % of control
same,T/C,"dose: 200.0 mg/kg/injection, schedule: Q01DX009 (ip), vehicle: saline with Tween-80",87 % of control
COc1cccc(CNc2cccc([N+](=O)[O-])c2)c1OC,T/C,[6],100 % of control
same,T/C,[12],110 % of control
same,T/C,[13],105 % of control
C(=N\OCc1ccccc1)/c1ccccn1,T/C,[6],101 % of control
same,T/C,[12],101 % of control
same,T/C,[13],97 % of control
O=C(O)/C=C/c1ccc(/C=C/C(=O)O)cc1,T/C,[9],111 % of control
same,T/C,[10],102 % of control
same,T/C,[11],100 % of control

# From PubChem BioAssay AID192 (DTP/NCI, 2004)
